Experimental data: PubChem BioAssay AID256 (DTP/NCI, 2004)
Where “and” joins values, the source holds several entries; their conditions need not be identical. Equal entries are not always repeated. Inconclusive results and toxic doses are left out. How the source made its calls: active means survival T/C of 150% or more; inactive means T/C below 125% in these data.

System: CD2F1 mice, L1210 leukemia ip, survival T/C
Test: NCI In Vivo Anticancer Drug Screen. Data for tumor model L1210 Leukemia (intraperitoneal) in CD2F1 (CDF1) mice
Conditions: higher = longer survival
Method in brief: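 Read-out first: treated-group measurement over vehicle-control measurement, expressed as a ratio. Animals bore a transplanted tumor line and were dosed with compound or vehicle.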

[1] = endpoint: mean survival time, dose: 50.0 mg/kg/injection, schedule: Q01DX009 (ip), vehicle: saline with Tween-80
[2] = endpoint: mean survival time, dose: 100.0 mg/kg/injection, schedule: Q01DX009 (ip), vehicle: saline with Tween-80
[3] = endpoint: mean survival time, dose: 100.0 mg/kg/injection, schedule: Q04DX003 (ip), vehicle: saline with Tween-80
[4] = endpoint: mean survival time, dose: 200.0 mg/kg/injection, schedule: Q04DX003 (ip), vehicle: saline with Tween-80
[5] = endpoint: mean survival time, dose: 400.0 mg/kg/injection, schedule: Q04DX003 (ip), vehicle: saline with Tween-80
[6] = endpoint: mean survival time, dose: 200.0 mg/kg/injection, schedule: Q01DX009 (ip), vehicle: saline with Tween-80

Measured: T/C

C1CN2CCN1CC2.O.[Cl][Pt][Cl]
inactive: endpoint: mean survival time, dose: 12.5 mg/kg/injection, schedule: Q01DX005 (ip), vehicle: water 97 % of control | endpoint: mean survival time, dose: 25.0 mg/kg/injection, schedule: Q01DX005 (ip), vehicle: water 92 % of control | endpoint: mean survival time, dose: 50.0 mg/kg/injection, schedule: Q01DX005 (ip), vehicle: water 92 % of control | endpoint: mean survival time, dose: 50.0 mg/kg/injection, schedule: Q04DX003 (ip), vehicle: water 102 % of control | endpoint: mean survival time, dose: 100.0 mg/kg/injection, schedule: Q01DX005 (ip), vehicle: water 96 % of control | endpoint: mean survival time, dose: 100.0 mg/kg/injection, schedule: Q04DX003 (ip), vehicle: water 94 % of control | endpoint: mean survival time, dose: 200.0 mg/kg/injection, schedule: Q01DX005 (ip), vehicle: water 96 % of control | endpoint: mean survival time, dose: 200.0 mg/kg/injection, schedule: Q04DX003 (ip), vehicle: water 95 % of control | endpoint: mean survival time, dose: 400.0 mg/kg/injection, schedule: Q04DX003 (ip), vehicle: water 107 % of control

CC(C)C1NC(=O)C2CCCN2C1=O (centres undefined)
inactive: endpoint: mean survival time, dose: 100.0 mg/kg/injection, schedule: Q01DX009 (ip), vehicle: saline sonified 98 % of control | endpoint: mean survival time, dose: 200.0 mg/kg/injection, schedule: Q01DX009 (ip), vehicle: saline sonified 93 % of control | endpoint: mean survival time, dose: 400.0 mg/kg/injection, schedule: Q01DX009 (ip), vehicle: saline sonified 96 % of control

CCCCCCCCC[n+]1ccc(C#N)cc1
inactive: endpoint: mean survival time, dose: 9.38 mg/kg/injection, schedule: Q01DX001 (ip), vehicle: other 103 % of control | endpoint: mean survival time, dose: 18.75 mg/kg/injection, schedule: Q01DX001 (ip), vehicle: other 101 % of control | endpoint: mean survival time, dose: 37.5 mg/kg/injection, schedule: Q01DX001 (ip), vehicle: other 103 % of control

COc1ccc(CC(=O)Nc2ccc(OC)c(OC)c2)cc1OC
inactive: endpoint: mean survival time, dose: 12.5 mg/kg/injection, schedule: Q01DX009 (ip), vehicle: water 96 % of control | endpoint: mean survival time, dose: 25.0 mg/kg/injection, schedule: Q01DX009 (ip), vehicle: water 98 % of control | endpoint: mean survival time, dose: 50.0 mg/kg/injection, schedule: Q01DX009 (ip), vehicle: water 96 % of control | endpoint: mean survival time, dose: 100.0 mg/kg/injection, schedule: Q01DX009 (ip), vehicle: water 95 % of control | endpoint: mean survival time, dose: 200.0 mg/kg/injection, schedule: Q01DX009 (ip), vehicle: water 96 % of control

CN(C)C=Nc1cccc2[nH]c3ccccc3c12
inactive: endpoint: mean survival time, dose: 12.5 mg/kg/injection, schedule: Q01DX009 (ip), vehicle: saline with Tween-80 92 % of control | endpoint: mean survival time, dose: 25.0 mg/kg/injection, schedule: Q01DX009 (ip), vehicle: saline with Tween-80 104 % of control | [1] 97 % of control | endpoint: mean survival time, dose: 100.0 mg/kg/injection, schedule: Q01DX001 (ip), vehicle: saline with Tween-80 92 % of control | [2] 103 % of control | endpoint: mean survival time, dose: 200.0 mg/kg/injection, schedule: Q01DX001 (ip), vehicle: saline with Tween-80 101 % of control

COc1cc(N)nc(OC)n1
inactive: [3] 94 % of control | [4] 100 % of control | [5] 87 % of control

C/C1=C/C2=CC(C)C[C@@H]2C(=O)[C@]2(C)C(=O)CC(C)(C)[C@H]2CC1=O (some centres undefined)
inactive: endpoint: mean survival time, dose: 0.13 mg/kg/injection, schedule: Q01DX009 (ip), vehicle: Klucel (hydroxypropylcellulose) (HPC) 98 % of control | endpoint: mean survival time, dose: 0.25 mg/kg/injection, schedule: Q01DX009 (ip), vehicle: Klucel (hydroxypropylcellulose) (HPC) 95 % of control | endpoint: mean survival time, dose: 0.5 mg/kg/injection, schedule: Q01DX009 (ip), vehicle: Klucel (hydroxypropylcellulose) (HPC) 93 % of control | endpoint: mean survival time, dose: 1.0 mg/kg/injection, schedule: Q01DX009 (ip), vehicle: Klucel (hydroxypropylcellulose) (HPC) 90 % of control

O=C(O)CC(NC(=O)OCc1ccccc1)C(=O)OCc1ccccc1 (centres undefined)
inactive: [2] 93 % of control | [3] 104 % of control | [6] 96 % of control | [4] 100 % of control | [5] 87 % of control

CCn1c(C)nc2cc(C(N)=O)ccc21
inactive: [2] 97 % of control | [3] 100 % of control | [6] 91 % of control | [4] 96 % of control | [5] 102 % of control

CC(c1ccccc1)N1CCCOP1(=O)N(CCCl)CCCl (centres undefined)
inactive: endpoint: mean survival time, dose: 6.25 mg/kg/injection, schedule: Q01DX009 (ip), vehicle: other 103 % of control | endpoint: mean survival time, dose: 12.5 mg/kg/injection, schedule: Q01DX009 (ip), vehicle: other 103 % of control and 94 % of control | endpoint: mean survival time, dose: 25.0 mg/kg/injection, schedule: Q01DX009 (ip), vehicle: other 98 % of control and 94 % of control | endpoint: mean survival time, dose: 31.3 mg/kg/injection, schedule: Q01DX001 (ip), vehicle: other 98 % of control and 112 % of control and 103 % of control | endpoint: mean survival time, dose: 31.3 mg/kg/injection, schedule: Q01DX001 (ip), vehicle: saline + alcohol 101 % of control | endpoint: mean survival time, dose: 50.0 mg/kg/injection, schedule: Q01DX009 (ip), vehicle: other 109 % of control and 94 % of control | endpoint: mean survival time, dose: 62.5 mg/kg/injection, schedule: Q01DX001 (ip), vehicle: other 98 % of control and 100 % of control and 103 % of control | endpoint: mean survival time, dose: 62.5 mg/kg/injection, schedule: Q01DX001 (ip), vehicle: saline + alcohol 94 % of control | endpoint: mean survival time, dose: 100.0 mg/kg/injection, schedule: Q01DX009 (ip), vehicle: other 115 % of control and 96 % of control | endpoint: mean survival time, dose: 125.0 mg/kg/injection, schedule: Q01DX001 (ip), vehicle: other 113 % of control and 108 % of control and 100 % of control | endpoint: mean survival time, dose: 125.0 mg/kg/injection, schedule: Q01DX001 (ip), vehicle: saline + alcohol 97 % of control | endpoint: mean survival time, dose: 200.0 mg/kg/injection, schedule: Q01DX009 (ip), vehicle: other 100 % of control | endpoint: mean survival time, dose: 250.0 mg/kg/injection, schedule: Q01DX001 (ip), vehicle: other 107 % of control and 100 % of control and 103 % of control | endpoint: mean survival time, dose: 250.0 mg/kg/injection, schedule: Q01DX001 (ip), vehicle: saline + alcohol 97 % of control | endpoint: mean survival time, dose: 500.0 mg/kg/injection, schedule: Q01DX001 (ip), vehicle: other 100 % of control and 103 % of control | endpoint: mean survival time, dose: 500.0 mg/kg/injection, schedule: Q01DX001 (ip), vehicle: saline + alcohol 91 % of control

CCOC(=O)NC(=O)/C=C/N1CCCC1
inactive: endpoint: mean survival time, dose: 50.0 mg/kg/injection, schedule: Q01DX009 (ip), vehicle: saline 102 % of control | endpoint: mean survival time, dose: 100.0 mg/kg/injection, schedule: Q01DX009 (ip), vehicle: saline 97 % of control | endpoint: mean survival time, dose: 200.0 mg/kg/injection, schedule: Q01DX009 (ip), vehicle: saline 94 % of control

O=C(N1CCC2(CC1)SSC1(CCN(C(=O)C(F)(F)F)CC1)S2)C(F)(F)F
inactive: [3] 88 % of control | [4] 90 % of control | [5] 90 % of control

C#CCN(C)/N=N/c1nc[nH]c1C(N)=O
inactive: endpoint: mean survival time, dose: 12.5 mg/kg/injection, schedule: Q01DX009 (ip), vehicle: Klucel (hydroxypropylcellulose) (HPC) 123 % of control | endpoint: mean survival time, dose: 200.0 mg/kg/injection, schedule: Q01DX009 (ip), vehicle: Klucel (hydroxypropylcellulose) (HPC) 98 % of control

O=c1cc[nH]cc1[N+](=O)[O-]
inactive: [1] 101 % of control | [2] 101 % of control | endpoint: mean survival time, dose: 100.0 mg/kg/injection, schedule: Q04DX003 (ip), vehicle: saline sonified 97 % of control | [6] 100 % of control | endpoint: mean survival time, dose: 200.0 mg/kg/injection, schedule: Q04DX003 (ip), vehicle: saline sonified 95 % of control

C1=NOC2c3ccc4ccccc4c3CCC12 (centres undefined)
inactive: endpoint: mean survival time, dose: 100.0 mg/kg/injection, schedule: Q04DX003 (ip), vehicle: Klucel (hydroxypropylcellulose) (HPC) 100 % of control | endpoint: mean survival time, dose: 200.0 mg/kg/injection, schedule: Q04DX003 (ip), vehicle: Klucel (hydroxypropylcellulose) (HPC) 101 % of control | endpoint: mean survival time, dose: 400.0 mg/kg/injection, schedule: Q04DX003 (ip), vehicle: Klucel (hydroxypropylcellulose) (HPC) 107 % of control

O=C(C[n+]1ccccc1/C=N/O)c1ccccc1
inactive: endpoint: mean survival time, dose: 50.0 mg/kg/injection, schedule: Q04DX003 (ip), vehicle: saline with Tween-80 91 % of control

CC(=O)OCC1OC(n2cnc(C(=O)O)c2N)C(OC(C)=O)C1OC(C)=O (centres undefined)
inactive: endpoint: median survival time, dose: 8.75 mg/kg/injection, schedule: Q01DX005 (ip), vehicle: saline 98 % of control | endpoint: median survival time, dose: 17.5 mg/kg/injection, schedule: Q01DX005 (ip), vehicle: saline 100 % of control | endpoint: median survival time, dose: 35.0 mg/kg/injection, schedule: Q01DX005 (ip), vehicle: saline 96 % of control | endpoint: median survival time, dose: 70.0 mg/kg/injection, schedule: Q01DX005 (ip), vehicle: saline 96 % of control | endpoint: median survival time, dose: 140.0 mg/kg/injection, schedule: Q01DX005 (ip), vehicle: saline 98 % of control

C/C(=N\NS(=O)(=O)c1ccc(C)cc1)c1ccccc1
inactive: endpoint: mean survival time, dose: 100.0 mg/kg/injection, schedule: Q04DX002 (ip), vehicle: saline with Tween-80 108 % of control | endpoint: mean survival time, dose: 200.0 mg/kg/injection, schedule: Q04DX002 (ip), vehicle: saline with Tween-80 96 % of control | endpoint: mean survival time, dose: 400.0 mg/kg/injection, schedule: Q04DX002 (ip), vehicle: saline with Tween-80 103 % of control
